Tests used:
Human recombinant MAO-A = molecular target: T1, Human recombinant MAO-A (Homo sapiens, UniProt P21397); assay: MAO-A inhibitory assay; type: biochemical
T1 sequence (P21397 1-527): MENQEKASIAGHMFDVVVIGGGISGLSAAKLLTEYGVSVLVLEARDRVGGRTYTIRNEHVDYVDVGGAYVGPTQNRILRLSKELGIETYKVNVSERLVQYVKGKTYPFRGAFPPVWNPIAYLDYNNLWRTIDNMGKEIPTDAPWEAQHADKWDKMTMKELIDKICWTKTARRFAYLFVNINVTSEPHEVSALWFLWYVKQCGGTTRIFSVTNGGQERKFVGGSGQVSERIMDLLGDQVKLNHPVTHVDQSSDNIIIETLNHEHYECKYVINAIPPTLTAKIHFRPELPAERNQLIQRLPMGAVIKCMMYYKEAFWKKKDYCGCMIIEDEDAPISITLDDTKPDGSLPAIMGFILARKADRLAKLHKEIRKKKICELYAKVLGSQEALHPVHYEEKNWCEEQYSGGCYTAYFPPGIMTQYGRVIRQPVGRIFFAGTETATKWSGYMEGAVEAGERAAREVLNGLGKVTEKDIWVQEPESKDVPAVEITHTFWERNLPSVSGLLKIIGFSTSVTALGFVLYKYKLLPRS

MAO-B = molecular target: T2, MAO-B (Homo sapiens, UniProt P27338); assay: MAO-B inhibitory assay; type: biochemical; settings: MAO-B IC50, kynuramine 30 μM, potassium phosphate buffer pH 7.4, 37 °C, 20 min
T2 sequence (P27338 1-520): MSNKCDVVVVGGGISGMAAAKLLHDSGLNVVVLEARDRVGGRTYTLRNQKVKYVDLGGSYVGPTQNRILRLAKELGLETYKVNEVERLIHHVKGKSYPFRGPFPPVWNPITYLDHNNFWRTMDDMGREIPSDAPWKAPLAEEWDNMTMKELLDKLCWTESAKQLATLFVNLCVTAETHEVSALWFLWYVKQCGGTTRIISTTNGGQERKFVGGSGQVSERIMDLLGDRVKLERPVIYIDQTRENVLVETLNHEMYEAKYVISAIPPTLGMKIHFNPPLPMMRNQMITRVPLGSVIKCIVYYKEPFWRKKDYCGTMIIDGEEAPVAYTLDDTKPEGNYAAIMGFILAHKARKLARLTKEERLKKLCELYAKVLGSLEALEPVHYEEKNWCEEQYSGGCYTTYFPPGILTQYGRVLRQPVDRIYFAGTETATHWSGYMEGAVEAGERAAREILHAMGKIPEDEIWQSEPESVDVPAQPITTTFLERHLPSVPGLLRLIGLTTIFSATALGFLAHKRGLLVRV

Compound | IC50 (Human recombinant MAO-A) [µM] | IC50 (MAO-B) [µM]
COC(=O)c1c(OC)cc(OC)cc1C(=O)c1cc(C)cc(OC)c1OC [compound 19, Methyl 2-(2,3-dimethoxy-5-methylbenzoyl)-4,6-dimethoxybenzoate] | > 100 | > 100
COc1cc(C)cc(C(=O)c2cc(OCc3ccccc3)cc(OCc3ccccc3)c2)c1OC [compound 25, (3,5-Bis(benzyloxy)phenyl)(2,3-dimethoxy-5-methylphenyl)methanone] | > 100 | > 100
COc1cc(C)cc(C(=O)c2cc(OCc3ccccc3)cc(OCc3ccccc3)c2Br)c1OC [compound 26, (3,5-Bis(benzyloxy)-2-bromophenyl)(2,3-dimethoxy-5-methylphenyl)methanone] | > 100 | > 100
COc1cc(C)cc(C(=O)c2cc(OCc3ccccc3)cc(OCc3ccccc3)c2C#N)c1OC [compound 27, 2,4-Bis(benzyloxy)-6-(2,3-dimethoxy-5-methylbenzoyl)benzonitrile] | > 100 | > 100
COCOc1cc(OC)cc2c1C(=O)NC2(O)c1cc(C)cc(OC)c1OC (stereo not drawn) [compound 35, 3-(2,3-Dimethoxy-5-methylphenyl)-3-hydroxy-5-methoxy-7-(methoxymethoxy)isoindolin-1-one] | > 100 | > 100
COc1cc(OCc2ccccc2)cc(C(=O)c2cc(C)cc(OC)c2OCc2ccccc2)c1Br [compound 39, (5-(Benzyloxy)-2-bromo-3-methoxyphenyl) (2-(benzyloxy)-3-methoxy-5-methylphenyl)methanone] | > 100 | > 100
COc1cc(OCc2ccccc2)cc(C(=O)c2cc(C)cc(OC)c2OCc2ccccc2)c1C#N [compound 40, (5-(Benzyloxy)-2-cyano-3-methoxyphenyl) (2-(benzyloxy)-3-methoxy-5-methylphenyl)methanone] | > 100 | > 100

Second part, the molecule after the results:

IC50 (Human recombinant MAO-A) [µM] | IC50 (MAO-B) [µM] | Compound
> 100 | 52.8 | COc1cc(OC)c2c(c1)C(O)(c1cc(C)cc(OC)c1OC)OC2=O (stereo not drawn) [compound 12, 3-(2,3-Dimethoxy-5-methylphenyl)-3-hydroxy-5,7-dimethoxyisobenzofuran-1(3H)-one]
62.1 | > 100 | COc1cc(OC)c(Br)c(C(=O)c2cc(C)cc(OC)c2OC)c1 [compound 16, (2-Bromo-3,5-dimethoxyphenyl)(2,3-dimethoxy-5-methylphenyl)methanone]
> 100 | > 100 | COc1cc(OC)c(C#N)c(C(=O)c2cc(C)cc(OC)c2OC)c1 [compound 17, 2-(2,3-Dimethoxy-5-methylbenzoyl)-4,6-dimethoxybenzonitrile]
47 | 61.6 | CCOC(=O)c1c(OC)cc(OC)cc1C(=O)c1cc(C)cc(OC)c1OC [compound 21, Ethyl 2-(2,3-dimethoxy-5-methylbenzoyl)-4,6-dimethoxybenzoate]
14.8 | 43.7 | COc1cc(C)cc(C(=O)c2cc(O)cc(O)c2Br)c1O [compound 31, (2-Bromo-3,5-dihydroxyphenyl)(2-hydroxy-3-methoxy-5-methylphenyl)methanone]
34.1 | 53.6 | COCOc1cc(O)cc(C(=O)c2cc(C)cc(OC)c2O)c1Br [compound 32, (2-Bromo-5-hydroxy-3-(methoxymethoxy)phenyl) (2-hydroxy-3-methoxy-5-methylphenyl)methanone]
27.5 | > 100 | COCOc1cc(OC)cc(C(=O)c2cc(C)cc(OC)c2OC)c1Br [compound 33, (2-Bromo-5-methoxy-3-(methoxymethoxy)phenyl)(2,3-dimethoxy-5-methylphenyl)methanone]
24.8 | > 100 | COCOc1cc(OC)cc(C(=O)c2cc(C)cc(OC)c2OC)c1C#N [compound 34, 2-(2,3-Dimethoxy-5-methylbenzoyl)-4-methoxy-6-(methoxymethoxy)benzonitrile]
31.9 | 38.4 | COc1cc(O)c2c(c1)C(O)(c1cc(C)cc(OC)c1OC)NC2=O (stereo not drawn) [compound 36, 3-(2,3-Dimethoxy-5-methylphenyl)-3,7-dihydroxy-5-methoxyisoindolin-1-one]
52.2 | 18.6 | COCOc1cc(OCc2ccccc2)cc(C(=O)c2cc(C)cc(OC)c2OCc2ccccc2)c1Br [compound 37, (5-(Benzyloxy)-2-bromo-3-(methoxymethoxy)phenyl) (2-(benzyloxy)-3-methoxy-5-methylphenyl)methanone]
20.6 | 94.3 | COc1cc(C)cc(C(=O)c2cc(OCc3ccccc3)cc(O)c2Br)c1OCc1ccccc1 [compound 38, (5-(Benzyloxy)-2-bromo-3-hydroxyphenyl) (2-(benzyloxy)-3-methoxy-5-methylphenyl)methanone]
